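How tested: cells in 96-well plates exposed to compound for 48 hours at five concentrations. The concentration for full growth arrest is given as TGI.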
Columns and labels:
Test in all cases: inhibition of tumour cell growth, NCI panel, 48 h
[1] = system: T-47D breast
[2] = system: UO-31 renal
[3] = system: SN12C renal
[4] = system: HCT-15 colon
[5] = system: COLO 205 colon
[6] = system: SF-268 CNS
[7] = system: DU-145 prostate
[8] = system: KM12 colon
[9] = system: SK-OV-3 ovarian
[10] = system: MDA-MB-231 breast
[11] = system: M14 melanoma
[12] = system: UACC-62 melanoma
[13] = system: NCI/ADR-RES ovarian
[14] = system: OVCAR-8 ovarian
[15] = system: HS 578T breast

Compound	TGI [1] [µM]	TGI [2] [µM]	TGI [3] [µM]	TGI [4] [µM]	TGI [5] [µM]	TGI [6] [µM]	TGI [7] [µM]	TGI [8] [µM]	TGI [9] [µM]	TGI [10] [µM]	TGI [11] [µM]	TGI [12] [µM]	TGI [13] [µM]	TGI [14] [µM]	TGI [15] [µM]
Oc1[nH]c2ccccc2c1N=NC(=S)N1CCCCC1	20	3.23	15.1	2.42	11.2	14.3	10.9	1.62	7.62	2.79	2.23	4.01	0.635	1.8	–
CNC(C)Cc1ccccc1O (configuration not stated)	–	> 100	> 100	> 100	> 100	> 100	–	> 100	> 100	–	> 100	> 100	–	> 100	–
CCC(CC)C(=O)OC[n+]1ccc(-c2c(COC(=O)NC(C)C)c(COC(=O)NC(C)C)c3n2CCC3)cc1	–	> 100	> 100	> 100	> 100	–	–	–	> 100	> 100	> 100	–	> 100	> 100	> 100
COC(=O)/C=C/c1cnc2c(c1)oc(=O)n2CCc1ccccn1	> 100	> 100	> 100	> 100	> 100	> 100	–	> 100	> 100	> 100	> 100	> 100	> 100	–	> 100
CCCCCCCC(=O)OC[C@@H](C[As](=O)(O)O)OC(=O)CCCCCCC	–	17.1	23.3	22.4	34.3	20.3	–	–	28.1	–	29.6	23.4	–	37.5	–
O=S1(=O)NNC(=NCc2ccc(Cl)c(Cl)c2)c2ccccc21	–	> 100	> 100	> 100	> 100	> 100	–	> 100	–	–	> 100	> 100	–	> 100	–
COc1cc2cc[n+](C)c(Cc3ccccc3)c2cc1OC	–	> 100	> 100	> 100	> 100	> 100	–	> 100	> 100	–	> 100	> 100	–	> 100	–
O=C1CSC(/C(=C/c2ccccc2)c2nc3ccccc3[nH]2)=N1	–	> 100	> 100	> 100	> 100	> 100	–	> 100	59.5	–	> 100	> 100	–	> 100	–
C[C@]12CCC3c4ccc(O)cc4CC[C@H]3C1CC(=O)N(N)C2=O (some centres not stated)	> 100	> 100	> 100	–	> 100	> 100	> 100	> 100	> 100	> 100	> 100	> 100	–	> 100	> 100
COc1ccc(-c2cc(-c3ccc(Cl)cc3)n(C3OC(CO)C(O)C(O)C3O)c(=S)c2C#N)cc1 (configuration not stated)	> 100	> 100	> 100	> 100	> 100	> 100	> 100	> 100	> 100	> 100	89.7	> 100	–	> 100	> 100
CC1CC(=O)Nc2cc(Cl)ccc2N1C(=O)C1CC1 (configuration not stated)	> 100	> 100	> 100	> 100	> 100	> 100	> 100	> 100	> 100	> 100	> 100	–	–	> 100	> 100
CCN(CC)CCNc1ccc2ncn3c4c(OC)ccc(OC)c4c(=O)c1c23	> 100	> 100	–	38.5	20.4	17.2	25.7	22.6	44.9	29.1	34.4	57.5	31.1	68.5	–
CC1(C)OCC2(CO1)CSCCCSCC1(COC(C)(C)OC1)CSCCCSC2	> 100	> 100	> 100	> 100	> 100	> 100	> 100	> 100	> 100	> 100	> 100	> 100	> 100	> 100	–
CC12CCC([C@H](N3CCOCC3)/C1=N\OCCN1CCCC1)C2(C)C (some centres not stated)	–	> 100	> 100	> 100	> 100	> 100	–	> 100	> 100	–	> 100	> 100	–	> 100	–

From PubChem BioAssay (NCI)
